Laboratory results from US11999746B2, “Compounds” (GlaxoSmithKline Intellectual Property Development Limited, priority 2014, dated 2024).
Counter-ions that a name gives are not always drawn.

Target: T1, recombinant human Lp-PLA2 (Homo sapiens, UniProt Q13093)
T1 sequence (Q13093 22-441): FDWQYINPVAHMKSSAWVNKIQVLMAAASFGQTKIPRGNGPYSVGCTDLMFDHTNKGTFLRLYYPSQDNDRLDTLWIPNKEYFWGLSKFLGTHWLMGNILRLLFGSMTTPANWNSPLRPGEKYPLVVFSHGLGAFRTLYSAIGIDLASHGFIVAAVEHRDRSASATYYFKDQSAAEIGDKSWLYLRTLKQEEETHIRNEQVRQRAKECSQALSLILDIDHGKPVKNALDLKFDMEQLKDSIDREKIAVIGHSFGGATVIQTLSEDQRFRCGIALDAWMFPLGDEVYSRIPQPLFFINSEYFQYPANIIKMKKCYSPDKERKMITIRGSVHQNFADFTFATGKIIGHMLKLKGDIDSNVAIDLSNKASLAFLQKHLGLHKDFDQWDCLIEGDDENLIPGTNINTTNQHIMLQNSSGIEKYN
Assay: (1b) hrThioPAF assay, recombinant human Lp-PLA2
Format: biochemical
Conditions: Examples 266-412 were tested here, one experiment or average of multiple experiments, read-out: rhLp-PLA2 (pIC50) (converted)
From the text: 1-O-Hexadecyl-2-deoxy-2-thio-S-acetyl-sn-glyceryl-3-phosphorylcholine (2-thio-PAF) is a substrate for PAF-hydrolases (PAF-AH) commercially available from Cayman Chemical. Upon cleavage with PAF-AH, the free thiol is released at the sn-2 position and can then react with 7-diethylamino-3-(4′-maleimidylphenyl)-4-methylcoumarin (CPM) a thiol-reactive coumarin. This reaction (Michael addition) results in an increase in fluorescence. Inhibitors of Lp-PLA2 therefore prevent this cleavage and no fluorescent increase is observed.
The Thio-PAF assay was run as an unquenched 20 μL assay. The source plate containing the compounds to be tested was prepared by making 1:3 (by volume) serial dilution of the compounds within DMSO on 384-well microplate. Then, 5 μL of the compounds on compound source plate were transferred into 384 well Greiner 784076 (black) plates using STAR+(Hamilton) liquid dispenser. 10 μL of recombinant human Lp-PLA2 enzyme (20 pM rhLp-PLA2 in assay buffer of 50 mM HEPES, pH 7.4, 150 mM NaCl, 1 mM CHAPS) was added to each well of the plate. 5 μL of substrate comprising 40 μM 2-thio-PAF [from ethanol stock], 40 μM CPM [from a DMSO stock] and 400 μM NEM (N-ethylmaleimide) [made fresh daily in DMSO] in assay buffer (50 mM HEPES, pH 7.4, 150 mM NaCl, 1 mM CHAPS) was added to 384 well Greiner 784076 black plates. Plates were vortexed for 10 sec. The plate was covered to protect it from light and incubated for 20 min at 25° C. The plates were read for fluorescence intensity at ex: 380 nm/em: 485 nm using Envision plate reader (Perkin Elmer). Raw data were transferred to Excel software and pIC50 data, curve and QC analysis was conducted by using XL fit module in Excel.

**Q.** With `O=c1nc(OCc2ccc(Cl)c(Br)c2)cc2n1CC1CNCCN21` (stereo not drawn) [Example E275, 7-((3-Bromo-4-chlorobenzyl)oxy)-3,4,11,11a-tetrahydro-1H-pyrazino[1′,2′:3,4] imidazo [1,2-c]pyrimidin-9(2H)-one] as the compound, how does the IC50 read?
**A.** ≤ 10 µM

**Q.** For `O=c1nc(OCc2ccc(F)c(Br)c2)cc2n1CC1CNCCN21` (stereo not drawn) [Example E276, 7-((3-Bromo-4-fluorobenzyl)oxy)-3,4,11,11a-tetrahydro-1H-pyrazino[1′,2′:3,4] imidazo [1,2-c]pyrimidin-9(2H)-one], which IC50 is on record?
**A.** ≤ 10 µM

**Q.** `O=c1nc(OCc2ccc(F)c(Cl)c2)cc2n1CC1CNCCN21` (stereo not drawn) [Example E277, 7-((3-Chloro-4-fluorobenzyl)oxy)-3,4,11,11a-tetrahydro-1H-pyrazino[1′,2′:3,4] imidazo [1,2-c]pyrimidin-9(2H)-one] was tested. Which IC50 did it give?
**A.** ≤ 10 µM

**Q.** Which IC50 does the source give for `COc1ccc(COc2cc3n(c(=O)n2)CC2CNCCN32)cc1C#N` (stereo not drawn) [Example E278, 2-Methoxy-5-(((9-oxo-2,3,4,9,11,11a-hexahydro-1H-pyrazino[1′,2′:3,4]imidazo [1,2-c]pyrimidin-7-yl)oxy)methyl) benzonitrile] here?
**A.** ≤ 10 µM

**Q.** Which IC50 does the source give for `CS(=O)(=O)N1CCN2c3cc(NCc4ccc(F)c(F)c4)nc(=O)n3CC2C1` (stereo not drawn) [Example E309, 7-((3,4-Difluorobenzyl)amino)-2-(methylsulfonyl)-3,4,11,11a-tetrahydro-1H-pyrazino[1′,2′:3,4]imidazo[1,2-c]pyrimidin-9(2H)-one] here?
**A.** ≤ 10 µM

**Q.** For `CS(=O)(=O)N1CCN2c3cc(NCc4cccc(F)c4F)nc(=O)n3CC2C1` (stereo not drawn) [Example E311, 7-((2,3-Difluorobenzyl)amino)-2-(methylsulfonyl)-3,4,11,11a-tetrahydro-1H-pyrazino[1′,2′:3,4]imidazo[1,2-c]pyrimidin-9(2H)-one], which IC50 is on record?
**A.** ≤ 10 µM

**Q.** With `CS(=O)(=O)N1CCN2c3cc(NCc4ccc(F)c(C#N)c4)nc(=O)n3CC2C1` (stereo not drawn) [Example E312, 2-Fluoro-5-(((2-(methylsulfonyl)-9-oxo-2,3,4,9,11,11a-hexahydro-1H-pyrazino[1′,2′:3,4]imidazo[1,2-c]pyrimidin-7-yl)amino)methyl)benzonitrile] as the compound, how does the IC50 read?
**A.** ≤ 10 µM

**Q.** How did the IC50 turn out when `CC(=O)N1CCN2c3cc(NCc4ccc(F)c(C#N)c4)nc(=O)n3CC2C1` (stereo not drawn) [Example E314, 5-(((2-Acetyl-9-oxo-2,3,4,9,11,11a-hexahydro-1H-pyrazino[1′,2′:3,4]imidazo[1,2-c]pyrimidin-7-yl)amino)methyl)-2-fluorobenzonitrile] was run?
**A.** ≤ 10 µM

**Q.** `N#Cc1cc(COc2cc3n(c(=O)n2)CC2CNCCN32)ccc1OC1CCC1` (stereo not drawn) [Example E316, 2-Cyclobutoxy-5-(((9-oxo-2,3,4,9,11,11a-hexahydro-1H-pyrazino[1′,2′:3,4]imidazo[1,2-c]pyrimidin-7-yl)oxy)methyl)benzonitrile] was tested. Which IC50 did it give?
**A.** ≤ 10 µM

**Q.** With `N#Cc1cc(COc2cc3n(c(=O)n2)CC2CNCCN32)ccc1OC1CCCC1` (stereo not drawn) [Example E317, 2-(Cyclopentyloxy)-5-(((9-oxo-2,3,4,9,11,11a-hexahydro-1H-pyrazino[1,2′:3,4]imidazo[1,2-c]pyrimidin-7-yl)oxy)methyl)benzonitrile] as the compound, how does the IC50 read?
**A.** ≤ 0.1 µM

**Q.** With `N#Cc1cc(CNc2cc3n(c(=O)n2)CC2CNCCN32)ccc1F` (stereo not drawn) [Example E319, 2-Fluoro-5-(((9-oxo-2,3,4,9,11,11a-hexahydro-1H-pyrazino[1′,2′:3,4]imidazo[1,2-c]pyrimidin-7-yl)amino)methyl)benzonitrile hydrochloride] as the compound, how does the IC50 read?
**A.** ≤ 10 µM

**Q.** Which IC50 does the source give for `O=C(O)C(C1CC1)N1CCN2c3cc(OCc4ccc(F)c(F)c4)nc(=O)n3CC2C1` (stereo not drawn) [Example E328, 2-Cyclopropyl-2-(7-((3,4-difluorobenzyl)oxy)-9-oxo-3,4,11,11a-tetrahydro-1H-pyrazino[1′,2′:3,4]imidazo[1,2-c]pyrimidin-2(9H)-yl)acetic acid, trifluoroacetic acid Salt] here?
**A.** ≤ 10 µM

**Q.** `O=C1CN2c3cc(OCc4cccc(F)c4F)nc(=O)n3CC2CN1` (stereo not drawn) [Example E348, 7-((2,3-Difluorobenzyl)oxy)-11,11a-dihydro-1H-pyrazino[1′,2′:3,4]imidazo[1,2-c]pyrimidine-3,9(2H,4H)-dione] was tested. Which IC50 did it give?
**A.** ≤ 10 µM

**Q.** For `N#Cc1cc(COc2ccc(COc3cc4n(c(=O)n3)CC3CNC(=O)CN43)cc2C#N)ccc1F` (stereo not drawn) [Example E350, 5-((2-cyano-4-(((3,9-dioxo-2,3,4,9,11,11a-hexahydro-1H-pyrazino[1′,2′:3,4]imidazo[1,2-c]pyrimidin-7-yl)oxy)methyl)phenoxy)methyl)-2-fluorobenzonitrile], which IC50 is on record?
**A.** ≤ 10 µM

**Q.** With `O=C1CN2c3cc(NCc4ccc(F)c(F)c4)nc(=O)n3CC2CN1` (stereo not drawn) [Example E353, 7-((3,4-Difluorobenzyl)amino)-11,11a-dihydro-1H-pyrazino[1′,2′:3,4]imidazo[1,2-c]pyrimidine-3,9(2H,4H)-dione] as the compound, how does the IC50 read?
**A.** ≤ 10 µM

**Q.** `N#Cc1cc(CNc2cc3n(c(=O)n2)CC2CNC(=O)CN32)ccc1F` (stereo not drawn) [Example E354, 5-(((3,9-dioxo-2,3,4,9,11,11a-hexahydro-1H-pyrazino[1′,2′:3,4]imidazo[1,2-c]pyrimidin-7-yl)amino)methyl)-2-fluorobenzonitrile, trifluoroacetic acid salt] was tested. Which IC50 did it give?
**A.** ≤ 10 µM

**Q.** `O=c1nc(OCc2cccc(F)c2F)cc2n1CC1CSCCN21` (stereo not drawn) [Example E361, 7-((2,3-Difluorobenzyl)oxy)-3,4,11,11a-tetrahydropyrimido[6′,1′:2,3]imidazo[5,1-c][1,4] thiazin-9(1H)-one] was tested. Which IC50 did it give?
**A.** ≤ 10 µM

**Q.** Which IC50 does the source give for `O=c1nc(OCc2cccc(F)c2F)cc2n1CC1C[S+]([O-])CCN21` (stereo not drawn) [Example E362, 7-((2,3-Difluorobenzyl)oxy)-3,4,11,11a-tetrahydropyrimido[6′,1′:2,3]imidazo[5,1-c][1,4] thiazin-9(1H)-one 2-oxide] here?
**A.** ≤ 10 µM

**Q.** For `O=c1nc(OCc2cccc(F)c2F)cc2n1CC1CS(=O)(=O)CCN21` (stereo not drawn) [Example E363, 7-((2,3-Difluorobenzyl)oxy)-3,4,11,11a-tetrahydropyrimido[6′,1′:2,3]imidazo[5,1-c][1,4] thiazin-9(1H)-one 2,2-dioxide], which IC50 is on record?
**A.** ≤ 10 µM

**Q.** How did the IC50 turn out when `N#Cc1cc(COc2ccc(COc3cc4n(c(=O)n3)CC3CSCCN43)cc2C#N)ccc1F` (stereo not drawn) [Example E365, 5-((2-Cyano-4-(((9-oxo-1,3,4,9,11,11a-hexahydropyrimido[6′,1′:2,3]imidazo[5,1-c][1,4]thiazin-7-yl)oxy)methyl)phenoxy)methyl)-2-fluorobenzonitrile] was run?
**A.** ≤ 10 µM

**Q.** How did the IC50 turn out when `O=c1nc(NCc2ccc(F)c(F)c2)cc2n1CC1CSCCN21` (stereo not drawn) [Example E374, 7-((3,4-Difluorobenzyl)amino)-3,4,11,11a-tetrahydropyrimido[6′,1′:2,3]imidazo[5,1-c][1,4]thiazin-9(1H)-one] was run?
**A.** ≤ 10 µM

**Q.** `O=c1nc(NCc2ccc(F)c(F)c2)cc2n1CC1C[S+]([O-])CCN21` (stereo not drawn) [Example E375, 7-((3,4-Difluorobenzyl)amino)-3,4,11,11a-tetrahydropyrimido[6′,1′:2,3]imidazo[5,1-c][1,4]thiazin-9(1H)-one 2-oxide] was tested. Which IC50 did it give?
**A.** ≤ 10 µM

**Q.** Which IC50 does the source give for `O=c1nc(NCc2cccc(F)c2F)cc2n1CC1CSCCN21` (stereo not drawn) [Example E377, 7-((2,3-Difluorobenzyl)amino)-3,4,11,11a-tetrahydropyrimido[6′,1′:2,3]imidazo[5,1-c][1,4]thiazin-9(1H)-one] here?
**A.** ≤ 10 µM

**Q.** `Cc1ccc(Oc2c(F)cc(COc3cc4n(c(=O)n3)C[C@@H]3C[C@H](O)CN43)cc2F)cn1` [Example E385, (7S,8aS)-3-((3,5-Difluoro-4-((6-methylpyridin-3-yl)oxy)benzyl)oxy)-7-hydroxy-7,8,8a,9-tetrahydropyrrolo[1′,2′:3,4]imidazo[1,2-c]pyrimidin-1(6H)-one] was tested. Which IC50 did it give?
**A.** ≤ 10 µM
